Measured values taken from patent EP0344425A2, “N-[[(2,6-disubstituted)phenyl]-N'- arylalkyl] ureas as antihypercholesterolemic and antiatherosclerotic agents” (WARNER-LAMBERT COMPANY, priority 1988, dated 1989).

Molecular target: acyl-CoA:cholesterol acyltransferase (ACAT)
Experiment: in vitro ACAT inhibition test (formation of radio-labeled cholesterol oleate from radio-labeled oleic acid in rabbit intestinal microsomes)
Format: biochemical
Details: tissue preparation containing rabbit intestinal microsomes; acylation of cholesterol by oleic acid; read-out: IC₅₀
Excerpt: The test assesses the ability of a test compound to inhibit the acylation of cholesterol by oleic acid by measuring the amount of radio-labeled cholesterol oleate formed from radio-labeled oleic acid in a tissue preparation containing rabbit intestinal microsomes.

## CCCC(CCC)(CNC(=O)Nc1c(C(C)C)cccc1C(C)C)c1ccccc1 [Example 1, N-[2,6-bis(1-Methylethyl)phenyl]-N′-(2-phenyl-2-propylpentyl)urea]
  IC50: 0.03 µM

## CCC(CC)(CNC(=O)Nc1c(C(C)C)cccc1C(C)C)c1ccccc1 [Example 2, N-[2,6-bis(1-Methylethyl)phenyl]-N′-(2-ethyl-2-phenylbutyl)urea]
  IC50: 0.017 µM

## CCCCC(CCCC)(CNC(=O)Nc1c(C(C)C)cccc1C(C)C)c1ccccc1 [Example 5, N-[2,6-bis(1-Methylethyl)phenyl]-N′-(2-butyl-2-phenylhexyl)urea]
  IC50: 0.03 µM

## CC(C)c1cccc(C(C)C)c1NC(=O)NCCc1ccccc1 [Example 6, N-[2,6-bis(1-Methylethyl)phenyl]-N′-(2-phenylethyl)urea]
  IC50: 0.088 µM

## CC(C)c1cccc(C(C)C)c1NC(=O)NCC(C)c1ccccc1 (stereo not shown) [Example 7]
  IC50: 0.035 µM

## CC(C)c1cccc(C(C)C)c1NC(=O)NCCCc1ccccc1 [Example 8, N-[2,6-bis(1-Methylethyl)phenyl]-N′-(3-phenylpropyl)urea]
  IC50: 0.191 µM

## CC(C)c1cccc(C(C)C)c1NC(=O)NCc1cccc2ccccc12 [Example 9, N-[2,6-bis(1-Methylethyl)phenyl]-N′-[(1-naphthalenyl)methyl]urea]
  IC50: 0.034 µM

## CC(C)c1cccc(C(C)C)c1NC(=O)NCCc1cccc2ccccc12 [Example 10, N-[2,6-bis(1-Methylethyl)phenyl]-N′-[2-(1-naphthalenyl)ethyl]urea]
  IC50: 0.041 µM

## CC(C)c1cccc(C(C)C)c1NC(=O)N[C@H](C)c1cccc2ccccc12 [Example 12, [R]-N-[2,6-bis(1-Methylethyl)phenyl]-N′-[1-(1-naphthalenyl)ethyl]urea]
  IC50: 0.035 µM

## CC(C)c1cccc(C(C)C)c1NC(=O)N[C@@H](C)c1cccc2ccccc12 [Example 13, [S]-N-[2,6-bis(1-Methylethyl)phenyl]-N′-[1-(1-naphthalenyl)ethyl]urea]
  IC50: 0.63 µM
